This is an account of results in patent US10034886B2, “GLP-1 receptor modulators” (Celgene International II SÀRL, priority 2014, dated 2018).

The structures appear in SMILES notation.

For one assay, the target named is T1, GLP-1R (Homo sapiens, UniProt P43220).
T1 construct: host or cells: GLP-1R CRE-bla CHO-K1 cells
T1 sequence (P43220 24-463): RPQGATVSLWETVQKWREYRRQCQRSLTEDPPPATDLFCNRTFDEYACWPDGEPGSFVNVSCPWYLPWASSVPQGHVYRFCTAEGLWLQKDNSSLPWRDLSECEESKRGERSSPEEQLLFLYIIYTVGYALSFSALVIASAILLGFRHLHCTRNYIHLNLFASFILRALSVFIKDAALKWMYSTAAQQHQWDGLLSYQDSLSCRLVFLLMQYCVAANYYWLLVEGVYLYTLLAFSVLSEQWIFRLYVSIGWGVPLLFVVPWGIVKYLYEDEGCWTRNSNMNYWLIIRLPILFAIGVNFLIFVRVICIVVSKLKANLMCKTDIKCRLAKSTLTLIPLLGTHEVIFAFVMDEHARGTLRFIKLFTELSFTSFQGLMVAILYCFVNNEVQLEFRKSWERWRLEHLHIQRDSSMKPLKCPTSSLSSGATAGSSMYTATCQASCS
T1 sequence (P01275 100-127 partner limits assumed): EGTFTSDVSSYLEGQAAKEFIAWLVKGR
The assay is described as follows: EC20 GLP-1(9-36) PAM cAMP assay: dose response of compound in the presence of fixed concentration of GLP-1(9-36). It is filed as cell-based. The note with it: EC20 GLP-1(9-36) PAM EC50, dose response of compound in presence of fixed concentration of GLP-1(9-36), GLP-1R CRE-bla CHO-K1 cells. Summed up:
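GLP-1R CRE-bla CHO-K1 cells treated 30 min at 37 °C with 12-point compound dose response plus fixed EC20 GLP-1(9-36), with IBMX, in HBSS/HEPES/0.1% BSA pH 7.4. Total cAMP measured by luminescent detection against standard curve; EC50 and Emax from non-linear regression.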
For orientation: Changes in cAMP serve as a functional read-out for many G protein-coupled receptors.
As usually defined, the EC50 is the concentration at which the effect is half-maximal. Consider `CCCCCCCOc1ccc(-c2cnc(-c3ccc(C[C@H](NC(=O)c4ccc(C(C)(C)C)s4)C(=O)N4CC[C@H](c5nnn[nH]5)C4)cc3)nc2)cc1` [Compound 886], for which the EC50 lay in the range of 0.8 to 2.5 µM.

The assay is the same for the next values; noted with them: dose response of compound in presence of fixed concentration of GLP-1(9-36), GLP-1R CRE-bla CHO-K1 cells, read-out: EC20 GLP-1(9-36) PAM EC50.
As to `CCCCCCCOc1ccc(-c2cnc(-c3ccc(C[C@H](NC(=O)c4ccc(CCC)cc4)C(=O)N4CC[C@H](C(=O)O)C4)cc3)nc2)cc1` [Compound 853], the EC50 lay in the range of 0.8 to 2.5 µM.

As for `CCCCCCCOc1ccc(-c2cnc(-c3ccc(C[C@H](NC(=O)c4ccc(CC)cc4)C(=O)N4CC[C@H](C(=O)O)C4)cc3)nc2)cc1` [Compound 855], the EC50 was in the range of 0.8 to 2.5 µM.

Regarding `CCCCCCCOc1ccc(-c2cnc(-c3ccc(C[C@H](NC(=O)c4cnc(C(C)(C)C)nc4)C(=O)N4CC[C@H](C(=O)O)C4)cc3)nc2)cc1` [Compound 856], the EC50 was 0.8 to 2.5 µM.

On to `CCCCCCCOc1ccc(-c2cnc(-c3ccc(C[C@H](NC(=O)c4ccc(C5CC5)cc4)C(=O)N4CC[C@H](C(=O)O)C4)cc3)nc2)cc1` [Compound 857], for which the EC50 lay in the range of 5 to 10 µM.

`CCCCCCCOc1ccc(-c2cnc(-c3ccc(C[C@H](NC(=O)c4ccc(C(C)(C)CC)cc4)C(=O)N4CC[C@H](C(=O)O)C4)cc3)nc2)cc1` [Compound 859]: the EC50 was 2.5 to 5 µM.

On to `CCCCCCCOc1ccc(-c2cnc(-c3ccc(C[C@H](NC(=O)c4ccc(C(C)(C)C#N)cc4)C(=O)N4CC[C@H](C(=O)O)C4)cc3)nc2)cc1` [Compound 860], for which the EC50 lay within 0.8 to 2.5 µM.

Regarding `CCCCCCCOc1ccc(-c2cnc(-c3ccc(C[C@H](NC(=O)c4cnn(C(C)(C)C)c4C)C(=O)N4CC[C@H](C(=O)O)C4)cc3)nc2)cc1` [Compound 861], the EC50 was 2.5 to 5 µM.

On to `CCCCCCCOc1ccc(-c2cnc(-c3ccc(C[C@H](NC(=O)c4ccc(C(C)(C)C)c(OC)c4)C(=O)N4CC[C@H](C(=O)O)C4)cc3)nc2)cc1` [Compound 862], for which the EC50 is 0.8 to 2.5 µM.

Take `CCCCCCCOc1ccc(-c2cnc(-c3ccc(C[C@H](NC(=O)c4ccc(CC)s4)C(=O)N4CC[C@H](C(=O)O)C4)cc3)nc2)cc1` [Compound 863]: the EC50 is 0.8 to 2.5 µM.

`CCCCCCCOc1ccc(-c2cnc(-c3ccc(C[C@H](NC(=O)c4ccc(CCC)s4)C(=O)N4CC[C@H](C(=O)O)C4)cc3)nc2)cc1` [Compound 864]: the EC50 lay in the range of 0.8 to 2.5 µM.

As to `CCCCCCCOc1ccc(-c2cnc(-c3ccc(C[C@H](NC(=O)c4ccc(C5CC5)s4)C(=O)N4CC[C@H](C(=O)O)C4)cc3)nc2)cc1` [Compound 865], the EC50 lay in the range of 0.8 to 2.5 µM.

Consider `CCCCCCCOc1ccc(-c2cnc(-c3ccc(C[C@H](NC(=O)c4sc(C(C)(C)C)cc4C)C(=O)N4CC[C@H](C(=O)O)C4)cc3)nc2)cc1` [Compound 866], for which the EC50 fell in the range of 2.5 to 5 µM.

As to `CCCCCCCOc1ccc(-c2cnc(-c3ccc(C[C@H](NC(=O)c4cnn(C(C)(C)C)c4)C(=O)N4CC[C@H](C(=O)O)C4)cc3)nc2)cc1` [Compound 867], the EC50 was 0.8 to 2.5 µM.

Consider `CCCCCCCOc1ccc(-c2cnc(-c3ccc(C[C@H](NC(=O)c4ccc(C(C)(C)C)cc4C)C(=O)N4CC[C@H](C(=O)O)C4)cc3)nc2)cc1` [Compound 868], for which the EC50 was in the range of 0.8 to 2.5 µM.

For the compound `CCCCCCCOc1ccc(-c2cnc(-c3ccc(C[C@H](NC(=O)c4ccc(N5CCCC5)cc4)C(=O)NCCC(=O)O)cc3)nc2)cc1` [Compound 869], the EC50 lay within 2.5 to 5 µM.

With `CCCCCCCOc1ccc(-c2cnc(-c3ccc(C[C@H](NC(=O)c4ccc(N5CCCC5)cc4)C(=O)N[C@@H](C)C(=O)O)cc3)nc2)cc1` [Compound 870], the EC50 lay in the range of 0.8 to 2.5 µM.

For the compound `CCCCCCCOc1ccc(-c2cnc(-c3ccc(C[C@H](NC(=O)c4ccc(C(C)(C)C)s4)C(=O)N4C[C@@H](F)C[C@@H]4C(=O)O)cc3)nc2)cc1` [Compound 871], the EC50 was 2.5 to 5 µM.

In the case of `CCCCCCCOc1ccc(-c2cnc(-c3ccc(C[C@H](NC(=O)c4ccc(C(C)(C)C)s4)C(=O)N[C@H]4C[C@@H](C(=O)O)C4)cc3)nc2)cc1` [Compound 872], the EC50 lay in the range of 0.8 to 2.5 µM.

On to `CCCCCCCOc1ccc(-c2cnc(-c3ccc(C[C@H](NC(=O)c4ccc(C(C)(C)C)s4)C(=O)N4CC(OC)(C(=O)O)C4)cc3)nc2)cc1` [Compound 873], for which the EC50 was less than 0.8 µM.

`CCCCCCCOc1ccc(-c2cnc(-c3ccc(C[C@H](NC(=O)c4ccc(C(C)(C)C)s4)C(=O)N4CC(C)(C(=O)O)C4)cc3)nc2)cc1` [Compound 874]: the EC50 lay within 0.8 to 2.5 µM.

Consider `CCCCCCCOc1ccc(-c2cnc(-c3ccc(C[C@H](NC(=O)c4ccc(C(C)(C)C)s4)C(=O)N[C@H]4C[C@H](C(=O)O)C4)cc3)nc2)cc1` [Compound 875], for which the EC50 lay in the range of 0.8 to 2.5 µM.

In the case of `CCCCCCCOc1ccc(-c2cnc(-c3ccc(C[C@H](NC(=O)c4ccc(C(C)(C)C)s4)C(=O)NC4(C(=O)O)CC(F)(F)C4)cc3)nc2)cc1` [Compound 876], the EC50 lay within 0.8 to 2.5 µM.

`CCCCCCCOc1ccc(-c2cnc(-c3ccc(C[C@H](NC(=O)c4ccc(C(C)(C)C)s4)C(=O)N4CC5(CC(C(=O)O)C5)C4)cc3)nc2)cc1` [Compound 877]: the EC50 lay in the range of 0.8 to 2.5 µM.

In the case of `CCCCCCCOc1ccc(-c2cnc(-c3ccc(C[C@H](NC(=O)c4ccc(C(C)(C)C)s4)C(=O)N4CC(F)(C(=O)O)C4)cc3)nc2)cc1` [Compound 878], the EC50 is less than 0.8 µM.

On to `CCCCCCCOc1ccc(-c2cnc(-c3ccc(C[C@H](NC(=O)c4ccc(C(C)(C)C)s4)C(=O)NC[C@H]4C[C@H](N)C4)cc3)nc2)cc1` [Compound 879], for which the EC50 lay in the range of 2.5 to 5 µM.

In the case of `CCCCCCCOc1ccc(-c2cnc(-c3ccc(C[C@H](NC(=O)c4ccc(C(C)(C)C)s4)C(=O)NC(C(=O)O)C(O)C(C)C)cc3)nc2)cc1` (some centres unmarked) [Compound 880], the EC50 is less than 0.8 µM.

Take `CCCCCCCOc1ccc(-c2cnc(-c3ccc(C[C@H](NC(=O)c4ccc(C(C)(C)C)s4)C(=O)N[C@H](C(=O)O)[C@H](O)C(C)C)cc3)nc2)cc1` [Compound 881]: the EC50 was 0.8 to 2.5 µM.

Turning to `CCCCCCCOc1ccc(-c2cnc(-c3ccc(C[C@H](NC(=O)c4ccc(C(C)(C)C)s4)C(=O)NC(C(=O)O)C(O)C(F)(F)F)cc3)nc2)cc1` (some centres unmarked) [Compound 882], the EC50 was in the range of 0.8 to 2.5 µM.

Regarding `CCCCCCCOc1ccc(-c2cnc(-c3ccc(C[C@H](NC(=O)c4ccc(C(C)(C)C)s4)C(=O)N[C@H](C(=O)O)[C@@H](N)c4ccccc4)cc3)nc2)cc1` [Compound 883], the EC50 fell in the range of 5 to 10 µM.

In the case of `CCCCCCCOc1ccc(-c2cnc(-c3ccc(C[C@H](NC(=O)c4ccc(C(C)(C)C)s4)C(=O)N4CC[C@H](C(=O)NS(C)(=O)=O)C4)cc3)nc2)cc1` [Compound 884], the EC50 lay within 0.8 to 2.5 µM.

Turning to `CCCCCCCOc1ccc(-c2cnc(-c3ccc(C[C@H](NC(=O)c4ccc(C(C)(C)C)s4)C(=O)N4CC[C@H](C(=O)Nc5nnn[nH]5)C4)cc3)nc2)cc1` [Compound 885], the EC50 lay in the range of 5 to 10 µM.

For the compound `CCCCCCCOc1ccc(-c2cnc(-c3ccc(C[C@H](NC(=O)c4ccc(C(C)(C)C)s4)C(=O)N4CC[C@H](C(=O)NS(=O)(=O)CC(F)(F)F)C4)cc3)nc2)cc1` [Compound 887], the EC50 is less than 0.8 µM.

Consider `CCCCCCCOc1ccc(-c2cnc(-c3ccc(C[C@H](NC(=O)c4ccc(C(C)(C)C)s4)C(=O)NC(C(=O)O)C(O)c4cccs4)cc3)nc2)cc1` (some centres unmarked) [Compound 888], for which the EC50 was 0.8 to 2.5 µM.

On to `CCCCCCCOc1ccc(-c2cnc(-c3ccc(C[C@H](NC(=O)c4ccc(C(C)(C)C)s4)C(=O)N[C@@H](C(=O)O)C(C)C)cc3)nc2)cc1` [Compound 889], for which the EC50 lay within 0.8 to 2.5 µM.

Take `CCCCCCCOc1ccc(-c2cnc(-c3ccc(C[C@H](NC(=O)c4ccc(C(C)(C)C)s4)C(=O)NC(C(=O)O)C(OC)c4ccccc4)cc3)nc2)cc1` (some centres unmarked) [Compound 890]: the EC50 is 0.8 to 2.5 µM.

As to `CCCCCCCOc1ccc(-c2cnc(-c3ccc(C[C@H](NC(=O)c4ccc(C(C)(C)C)s4)C(=O)N4CCNCC4C(=O)O)cc3)nc2)cc1` (some centres unmarked) [Compound 891], the EC50 lay in the range of 0.8 to 2.5 µM.

Take `CCCCCCCOc1ccc(-c2cnc(-c3ccc(C[C@H](NC(=O)c4ccc(C(C)(C)C)s4)C(=O)N4CC(C(=O)O)CC4C)cc3)nc2)cc1` (some centres unmarked) [Compound 892]: the EC50 was less than 0.8 µM.

On to `CCCCCCCOc1ccc(-c2cnc(-c3ccc(C[C@H](NC(=O)c4ccc(C(C)(C)C)cc4)C(=O)N4CC(C(=O)O)CC4C)cc3)nc2)cc1` (some centres unmarked) [Compound 893], for which the EC50 lay within 2.5 to 5 µM.

Consider `CCCCCCCOc1ccc(-c2cnc(-c3ccc(C[C@H](NC(=O)c4ccc(C(C)(C)C)s4)C(=O)NCC4(O)CCN(C)C4)cc3)nc2)cc1` (some centres unmarked) [Compound 894], for which the EC50 fell in the range of 5 to 10 µM.

For the compound `CCCCCCCOc1ccc(-c2cnc(-c3ccc(C[C@H](NC(=O)c4ccc(C(C)(C)C)s4)C(=O)N[C@@H](c4n[nH]c(=S)o4)[C@@H](C)O)cc3)nc2)cc1` [Compound 895], the EC50 was less than 0.8 µM.

With `CCCCCCCOc1ccc(-c2cnc(-c3ccc(C[C@H](NC(=O)c4ccc(C(C)(C)C)s4)C(=O)NC(C(=O)O)[C@H](C)c4ccccc4)cc3)nc2)cc1` (some centres unmarked) [Compound 896], the EC50 fell in the range of 5 to 10 µM.

As for `CCCCCCCOc1ccc(-c2cnc(-c3ccc(C[C@H](NC(=O)c4ccc(C(C)(C)C)s4)C(=O)NC(C(=O)O)[C@@H](C)c4ccccc4)cc3)nc2)cc1` (some centres unmarked) [Compound 897], the EC50 was 5 to 10 µM.

Consider `CCCCCCCOc1ccc(-c2cnc(-c3ccc(C[C@H](NC(=O)c4ccc(C(C)(C)C)s4)C(=O)N[C@@H](C(=O)O)C(C)c4ccccc4)cc3)nc2)cc1` (some centres unmarked) [Compound 898], for which the EC50 is 2.5 to 5 µM.

Consider `CCCCCCCOc1ccc(-c2cnc(-c3ccc(C[C@H](NC(=O)c4ccc(C(C)(C)C)s4)C(=O)N[C@H](C(=O)O)C(C)c4ccccc4)cc3)nc2)cc1` (some centres unmarked) [Compound 899], for which the EC50 is 2.5 to 5 µM.

`CCCCCCCOc1ccc(-c2cnc(-c3ccc(C[C@H](NC(=O)c4ccc(C(C)(C)C)s4)C(=O)NC(C(=O)O)C(O)c4ccc(C)cc4)cc3)nc2)cc1` (some centres unmarked) [Compound 900]: the EC50 lay within 0.8 to 2.5 µM.

Take `CCCCCCCOc1ccc(-c2cnc(-c3ccc(C[C@H](NC(=O)c4ccc(C(C)(C)C)s4)C(=O)NC(C(=O)O)C(O)c4ccc(Cl)cc4)cc3)nc2)cc1` (some centres unmarked) [Compound 901]: the EC50 is 0.8 to 2.5 µM.
